Each structure is given as a SMILES string.

By IC50 is commonly meant the midpoint of a concentration-inhibition curve. Read a low IC50 as greater potency in that assay.

Sequence of Acetylcholinesterase (O42275 whole entry): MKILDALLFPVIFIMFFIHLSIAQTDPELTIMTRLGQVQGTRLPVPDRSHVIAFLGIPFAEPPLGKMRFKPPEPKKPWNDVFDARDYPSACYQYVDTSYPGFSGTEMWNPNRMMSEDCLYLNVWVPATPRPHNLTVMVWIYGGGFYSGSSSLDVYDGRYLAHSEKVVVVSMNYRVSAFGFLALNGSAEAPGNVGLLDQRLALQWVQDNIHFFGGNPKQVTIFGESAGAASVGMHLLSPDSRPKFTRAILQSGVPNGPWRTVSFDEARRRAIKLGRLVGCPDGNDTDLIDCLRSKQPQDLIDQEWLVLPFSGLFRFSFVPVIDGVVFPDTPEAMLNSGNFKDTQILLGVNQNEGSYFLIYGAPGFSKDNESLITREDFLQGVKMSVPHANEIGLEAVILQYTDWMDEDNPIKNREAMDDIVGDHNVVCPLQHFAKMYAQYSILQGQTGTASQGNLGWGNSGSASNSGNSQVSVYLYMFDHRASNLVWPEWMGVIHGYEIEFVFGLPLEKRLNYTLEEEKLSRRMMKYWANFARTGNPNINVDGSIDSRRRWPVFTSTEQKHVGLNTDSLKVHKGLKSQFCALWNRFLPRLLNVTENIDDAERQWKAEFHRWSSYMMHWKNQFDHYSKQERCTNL

The experiment has as its target Acetylcholinesterase (Electrophorus electricus, UniProt O42275). Description: Inhibition Assay. Particulars: pH 8; 25 °C. As to the method: Inhibitory activity of synthesized alpha-unreidophosphonates were determined at 25 C by the colorimetric method of Ellman et al.
With `CCOP(=O)(OCC)C(c1ccccc1)N(C(=O)Nc1ccccc1)c1ccccc1` (stereo not drawn) [Alpha-ureidophosphonate, a], the IC50 turned out to be 172 µM.

The compound `CCOP(=O)(OCC)C(c1ccc(C(C)C)cc1)N(C(=O)Nc1ccccc1)c1ccccc1` (stereo not drawn) [Alpha-ureidophosphonate, b] yielded an IC50 of 230 µM.

As for `CCOP(=O)(OCC)C(c1ccc([N+](=O)[O-])cc1)N(C(=O)Nc1ccccc1)c1ccccc1` (stereo not drawn) [Alpha-ureidophosphonate, d], the IC50 turned out to be 811 µM.

`CCOP(=O)(OCC)C(c1ccc(C)cc1)N(C(=O)Nc1ccccc1)c1ccccc1` (stereo not drawn) [Alpha-ureidophosphonate, e] came in with an IC50 of 441 µM.

In turn, `CCOP(=O)(OCC)C(c1ccc(F)cc1)N(C(=O)Nc1ccccc1)c1ccc(OC)cc1` (stereo not drawn) [Alpha-ureidophosphonate, g] registered an IC50 of 69.3 µM.

Take `CCOP(=O)(OCC)C(c1ccc(C)cc1)N(Cc1ccccc1)C(=O)Nc1ccccc1` (stereo not drawn) [Alpha-ureidophosphonate, i]: the IC50 turned out to be 2.23 µM.

The compound `CCOP(=O)(OCC)C(c1ccc(C)cc1)N(C(=O)Nc1ccccc1)C1CCCCC1` (stereo not drawn) [Alpha-ureidophosphonate, k] came in with a 50% inhibitory concentration (IC50) of 148 µM.

Values taken from BindingDB's records for doi:10.1016/j.bioorg.2012.01.003 (Institute For Advanced Studies In Basic Sciences (Iasbs), 2012).
